The source of these data is PMC3265452 (PLoS Neglected Tropical Diseases, 2012).

In general, inhibition refers to the percentage by which the read-out fell short of the control.

Where a name gives a salt, the structure may show the parent alone.

Sequence of AaDOP2 (H6D5H2 1-476): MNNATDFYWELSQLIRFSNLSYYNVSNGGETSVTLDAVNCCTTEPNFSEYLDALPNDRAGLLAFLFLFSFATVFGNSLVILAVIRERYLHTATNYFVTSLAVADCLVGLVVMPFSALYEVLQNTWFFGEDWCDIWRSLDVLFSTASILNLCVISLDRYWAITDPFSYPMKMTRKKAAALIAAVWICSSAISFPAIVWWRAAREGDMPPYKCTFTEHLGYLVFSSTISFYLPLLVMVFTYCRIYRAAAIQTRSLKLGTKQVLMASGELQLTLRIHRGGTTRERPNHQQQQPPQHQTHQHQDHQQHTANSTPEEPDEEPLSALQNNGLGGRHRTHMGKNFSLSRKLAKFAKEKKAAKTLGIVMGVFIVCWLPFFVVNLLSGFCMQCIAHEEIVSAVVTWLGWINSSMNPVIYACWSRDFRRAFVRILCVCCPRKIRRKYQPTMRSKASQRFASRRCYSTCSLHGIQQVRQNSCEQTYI

The first assay has as its target AaDOP2 (Aedes aegypti, UniProt H6D5H2). Kind of assay: AaDOP2 antagonist screen of the LOPAC1280 library (HEK-CRELuc-Aadop2 cells, luminescence). The assay is classed as cell-based.
Conditions: not given
For `CC(C)NC[C@H](O)COc1cccc2[nH]ccc12` [Compound 1015, S(-)-Pindolol], the “Compound effect (percent receptor signaling in presence of test compound, relative lux units relative to the SCH23390 control)” value is 87.

With `CC(N/C(=N\C#N)Nc1ccncc1)C(C)(C)C` (centres unmarked) [Compound 1016, Pinacidil], the “Compound effect (percent receptor signaling in presence of test compound, relative lux units relative to the SCH23390 control)” value was 89. In the case of `CC(=O)[C@H]1CC[C@H]2[C@@H]3CC=C4C[C@@H](OS(=O)(=O)[O-])CC[C@]4(C)[C@H]3CC[C@]12C.[Na+]` [Compound 1017, Pregnenolone sulfate sodium], the “Compound effect (percent receptor signaling in presence of test compound, relative lux units relative to the SCH23390 control)” value stood at 107. On to `NC(=Nc1ccccc1)NC(=O)c1nc(Cl)c(N)nc1N` [Compound 1020, Phenamil methanesulfonate], for which the “Compound effect (percent receptor signaling in presence of test compound, relative lux units relative to the SCH23390 control)” value is 46.

Consider `COc1cccc(-c2cc(=O)c3ccccc3o2)c1N` [Compound 1023, PD 98,059], for which the “Compound effect (percent receptor signaling in presence of test compound, relative lux units relative to the SCH23390 control)” value was 94. As to `Cc1cccc(C(=O)NCN2CCN(c3ccccc3C#N)CC2)c1.O=C(O)/C=C\C(=O)O` [Compound 1025, PD 168,077 maleate], the “Compound effect (percent receptor signaling in presence of test compound, relative lux units relative to the SCH23390 control)” value is 91.

For the molecule `CN(C)S(=O)(=O)c1ccc2c(c1)/C(=C/c1cc3c([nH]1)CCCC3)C(=O)N2` [Compound 1026, SU 6656], the “Compound effect (percent receptor signaling in presence of test compound, relative lux units relative to the SCH23390 control)” value came to 65. Same read-out and setting: in the case of `O=C(O)c1cccnc1C(=O)O` [Compound 1027, Quinolinic acid] it was 83; in that of `O=c1c(O)c(-c2ccc(O)c(O)c2)oc2cc(O)cc(O)c12` [Compound 1028, Quercetin dihydrate], 34; in that of `C=C[C@H]1C[N@@]2CC[C@H]1C[C@@H]2[C@@H](O)c1ccnc2ccc(OC)cc12` [Compound 1029, Quinidine sulfate], 69. On the same count and under the same terms, under `O=C(O)/C=C\C(=O)O.O=C(O)/C=C\C(=O)O.c1ccc2nc(N3CCNCC3)ccc2c1` [Compound 1030, Quipazine dimaleate] stands 71; under `C=C[C@H]1C[N@@]2CC[C@H]1C[C@H]2[C@H](O)c1ccnc2ccc(OC)cc12` [Compound 1031, Quinine sulfate], 79; under `N[C@@H](Cn1oc(=O)[nH]c1=O)C(=O)O` [Compound 1032, (+)-Quisqualic acid], 80. On the same count and under the same terms, under `CCN(CC)CCCC(C)Nc1c2ccc(Cl)cc2nc2ccc(OC)cc12` (centres unmarked) [Compound 1033, Quinacrine dihydrochloride] stands 94; under `C[C@@H]1C(=O)NC2=Nc3cccc(Cl)c3CN21` [Compound 1034, Quazinone], 108.

For the molecule `C[C@]12CCC(=O)C=C1CC[C@@H]1[C@@H]2CC[C@@]2(C)[C@H]1CC[C@]2(O)C(=O)CO` [Compound 1040, Cortexolone], the “Compound effect (percent receptor signaling in presence of test compound, relative lux units relative to the SCH23390 control)” value came out at 99. On to `CC(NCCc1ccc(O)cc1)C(O)c1ccc(O)cc1` (centres unmarked) [Compound 1041, Ritodrine hydrochloride], for which the “Compound effect (percent receptor signaling in presence of test compound, relative lux units relative to the SCH23390 control)” value was 119.

For the molecule `O=C(c1ccc(OCCN2CCCCC2)cc1)c1c(-c2ccc(O)cc2)sc2cc(O)ccc12` [Compound 1042, Raloxifene hydrochloride], the “Compound effect (percent receptor signaling in presence of test compound, relative lux units relative to the SCH23390 control)” value amounted to 103.

For the molecule `CC1=C(/C=C/C(C)=C/C=C/C(C)=C/C(=O)O)C(C)(C)CCC1` [Compound 1043, Retinoic acid], the “Compound effect (percent receptor signaling in presence of test compound, relative lux units relative to the SCH23390 control)” value is reported as 106. On the same count and under the same terms, in the case of `N.N.N.N.N.N.N.N.N.N.N.N.N.N.[Cl-].[Cl-].[Cl-].[Cl-].[Cl-].[Cl-].[O-2].[O-2].[Ru+3].[Ru+3].[Ru+4]` [Compound 1044, Ruthenium red] it was 61. Still for that read-out and setting: in the case of `CC1=C(/C=C/C(C)=C/C=C/C(C)=C\C(=O)O)C(C)(C)CCC1` [Compound 1045, 13-cis-retinoic acid] it was 72. On the same count and under the same terms, under `O=c1c2ccccc2nc2n1CCc1c-2[nH]c2ccccc12` [Compound 1046, Rutaecarpine] stands 78.

Regarding `CCCN(CCC)CCc1cccc2c1CC(=O)N2` [Compound 1047, Ropinirole hydrochloride], the “Compound effect (percent receptor signaling in presence of test compound, relative lux units relative to the SCH23390 control)” value came out at 103. Consider `CCCCCC(O)c1cccc(OCc2ccc3ccccc3n2)c1` (centres unmarked) [Compound 1049, REV 5901], for which the “Compound effect (percent receptor signaling in presence of test compound, relative lux units relative to the SCH23390 control)” value worked out at 103. Still for that read-out and setting: under `CC(=O)c1c(O)c(C)c(O)c(Cc2c(O)c3c(c(C(=O)/C=C/c4ccccc4)c2O)OC(C)(C)C=C3)c1O` [Compound 1050, Rottlerin] stands 35; under `COc1ccccc1OCC(O)CN1CCN(CC(=O)Nc2c(C)cccc2C)CC1` (centres unmarked) [Compound 1051, Ranolazine dihydrochloride], 100. Same read-out and setting: in the case of `COc1ccc(C2CNC(=O)C2)cc1OC1CCCC1` (centres unmarked) [Compound 1052, Rolipram] it was 118; in that of `CC[C@H](CO)Nc1nc(NCc2ccccc2)c2ncn(C(C)C)c2n1` [Compound 1055, Roscovitine], 28; in that of `C=C(C)[C@H]1Cc2c(ccc3c2O[C@@H]2COc4cc(OC)c(OC)cc4[C@@H]2C3=O)O1` [Compound 1056, Rotenone], 41. On the same count and under the same terms, in the case of `NC(=O)c1ccc(OCC(O)CN2CC=C(c3ccc(F)cc3)CC2)cc1` (centres unmarked) [Compound 1057, Ro 8-4304] it was 115; in that of `NC(=O)c1ncn([C@@H]2O[C@H](CO)[C@@H](O)[C@H]2O)n1` [Compound 1059, Ribavirin], 119. As to `CNC(=C[N+](=O)[O-])NCCSCc1ccc(CN(C)C)o1` [Compound 1060, Ranitidine hydrochloride], the “Compound effect (percent receptor signaling in presence of test compound, relative lux units relative to the SCH23390 control)” value is listed as 106.

Take `Cc1nc2sccn2c(=O)c1CCN1CCC(=C(c2ccc(F)cc2)c2ccc(F)cc2)CC1` [Compound 1061, Ritanserin]: the “Compound effect (percent receptor signaling in presence of test compound, relative lux units relative to the SCH23390 control)” value was found to be 18. The same measure, in the same setting: under `COC(=O)[C@H]1[C@H]2C[C@H]3c4[nH]c5ccccc5c4CCN3C[C@H]2CC[C@@H]1O` [Compound 1062, Rauwolscine hydrochloride] stands 87. On to `O=C(c1cc(O)c(O)c([N+](=O)[O-])c1)c1ccccc1F` [Compound 1065, Ro 41-0960], for which the “Compound effect (percent receptor signaling in presence of test compound, relative lux units relative to the SCH23390 control)” value came out at 88. Still for that read-out and setting: under `Nc1c(S(=O)(=O)O)cc(Nc2ccc(Nc3nc(Cl)nc(Nc4cccc(S(=O)(=O)O)c4)n3)c(S(=O)(=O)O)c2)c2c1C(=O)c1ccccc1C2=O` [Compound 1066, Reactive Blue 2] stands 93; under `CC(C)COC(=O)OCN1C(=O)CN(CCN2CC(=O)N(COC(=O)OCC(C)C)C(=O)C2)CC1=O` [Compound 1070, Sobuzoxane], 96.

Still in this assay, the particulars now being: 10 µM compound, 300 nM dopamine, 2 hr; hit = compound effect <20.
Take `Cc1nc(N=Nc2ccc(S(=O)(=O)O)cc2S(=O)(=O)O)c(COP(=O)(O)O)c(C=O)c1O` [Compound 1018, PPADS]: the “Compound effect (percent receptor signaling in presence of test compound, relative lux units relative to the SCH23390 control)” value amounted to 103%. The same measure, in the same setting: under `CCCN1CCO[C@@H]2c3cc(O)ccc3OC[C@H]21.Cl` [Compound 1019, S(+)-PD 128,907 hydrochloride] stands 89%. Still for that read-out and setting: under `O=C([O-])CCC(NC(=O)c1ccccc1C(=O)[O-])C(=O)[O-].[Na+].[Na+].[Na+]` [Compound 1022, Phthalamoyl-L-glutamic acid trisodium] stands 97%.

Turning to `CN1CCN(c2ccc3ccccc3n2)CC1.O=C(O)/C=C\C(=O)O.O=C(O)/C=C\C(=O)O` [Compound 1036, Quipazine, N-methyl-, dimaleate], the “Compound effect (percent receptor signaling in presence of test compound, relative lux units relative to the SCH23390 control)” value stood at 74%. With `O=C(O)/C=C\C(=O)O.O=[N+]([O-])c1ccc2nc(N3CCNCC3)ccc2c1` [Compound 1037, Quipazine, 6-nitro-, maleate], the “Compound effect (percent receptor signaling in presence of test compound, relative lux units relative to the SCH23390 control)” value was 92%. The same measure, in the same setting: in the case of `CCCN1CCC[C@@H]2Cc3nc(N)ncc3C[C@H]21` [Compound 1038, Quinelorane dihydrochloride] it was 99%; in that of `C[C@@H](CN1CCC(Cc2ccccc2)CC1)[C@@H](O)c1ccc(O)cc1.Cl` [Compound 1053, Ro 25-6981 hydrochloride], 70%; in that of `CC(C)C[C@H](NP(=O)([O-])O[C@H]1O[C@H](C)[C@@H](O)[C@H](O)[C@@H]1O)C(=O)N[C@@H](Cc1c[nH]c2ccccc12)C(=O)[O-].[Na+].[Na+]` [Compound 1054, Phosphoramidon disodium], 104%. Still for that read-out and setting: in the case of `COC1(C2=NCCN2)COc2ccccc2O1.Cl` (centres unmarked) [Compound 1058, RX 821002 hydrochloride] it was 121%.

Still in this assay, the particulars now being: read-out: % of the SCH23390 effect (percent inhibition of receptor response relative to the SCH23390 control).
For the molecule `Cc1nc2sccn2c(=O)c1CCN1CCC(=C(c2ccc(F)cc2)c2ccc(F)cc2)CC1` [Compound 1061, Ritanserin], the inhibition at 10 µM amounted to 83%.
